Experimental data from patent US20260365696A1, “INHIBITORS OF PTP1B / NCK1 INTERACTION AND METHODS OF MAKING AND USING SAME” (Radella Pharmaceuticals LLC, priority 2023, published 2026).

Experiments:
[1] = target: T1, SH3-2 domain of NCK1 (Homo sapiens, UniProt P16333); experiment: Isothermal titration calorimetry (ITC) binding to NCK1 SH3-2 domain
T1 construct: To amplify the NCK1 SH3-2 domain, the primers; 10xHis tag with TEV site (vector pSF-OXB20-NH2-10HIS) (N, cleaved yes); made in house; host or cells: E. coli C43(DE3)
Summary of the method: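 Peptides (3-7.5 mM) titrated into TEV-cleaved, His-purified human NCK1 SH3-2 domain (0.125-0.3 mM) at 25 °C in 10 mM sodium buffer with sodium chloride, pH 8.0. One 0.2 μL then 19 × 2 μL injections; KD from fits with 0.8-1.2 sites, averaged over three runs.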

[2] = test system: SCD1; experiment: SCD1 gene expression in adipose tissue of LDLR−/− mice (qPCR); format: in vivo, mouse; conditions: 30 mg/kg IP daily, vs control
Experimental: FIGS. 30A-30E are graphs showing expression of various genes in tissues of HFD-fed LDLR−/− mice following 6 weeks of daily IP administration of MD20 (30 mg/kg) or a vehicle control. Mice were fasted for 5 hours at the conclusion of the experiment, liver and white adipose tissue (“WAT”) samples were collected, and gene expression was measured by qRT-PCR. Expression of glucose transporter 4 (GLUT4; FIG. 30A) and stearoyl-CoA-desaturase 1 (SCD1; FIG. 30B) was measured in adipose tissue, and expression of Glucose-6-phosphatase (G6P; FIG. 30C), Activating Transcription Factor 4 (ATF4; FIG. 30D), and 3-hydroxy-3-methylglutaryl (HMGCS; FIG. 30E) was measured in liver tissue. Data represent mean±SEM; statistical differences were determined using two tailed student's t-test.
Gene expression analyses: Livers and adipose tissue were collected from 5 h-fasted animals and snap-frozen in liquid nitrogen. RNA was isolated from frozen liver tissue using TRIzole (Sigma, UK) and cDNA was synthesized from 1 μg RNA using bioscript cDNA synthesis kit (Bioline, UK), oligo (dT) 18 (SEQ ID NO: 170), and random hexamer primers.
Genes of interest were amplified by quantitative PCR (qPCR) using gene-specific primers and GoTaq qPCR master mix (Promega, Madison, WI, USA).

Ac-PPPEHIPPPPRPPKR-NH2 [MD17] showed a Kd ([1]; Alanine scanning of the MD17 15-mer peptide, ITC, 25 °C, pH 8.0) of at most 300 µM.
Ac-PRPPKR-NH2 [MD20, Ac-PRPPKR-NH2] was tested, and the Kd ([1]; Alanine scanning of the MD20 6-mer peptide, ITC, 25 °C, pH 8.0) was at most 300 µM, the Kd ([1]; Peptide truncation analysis, ITC, 25 °C, pH 8.0) was at most 300 µM and the Kd ([1]; ability to bind SH3-2 domain of NCK1, stated in text) was under 193 µM. The “SCD1 expression in adipose tissue” value [2] was “increased”.
